In a melting point compilation (Tetko et al.; mined from patent text by program, amines drawn as free bases though some values may be those of a salt):

melting point [°C] | Compound
84 to 87 | COC(=O)C(Br)c1nsc2ccc(-n3c(=O)cc(C(F)(F)F)n(C)c3=O)cc12 (centres undefined)
85 to 87 | COC(=O)[C@H]1CN(C(=O)OC(C)(C)C)C[C@H]1c1ccc(OC)c(OC2CCCC2)c1 (relative stereo)
238 | CCCC(=O)Nc1ccc(O)c(-c2ccno2)c1
244 | CC(=O)Nc1ccc(-c2cnc3c(c2)N(Cc2cc(Cl)ccc2C(F)(F)F)CCN3)cc1
148 to 159 | O=C(Nc1cccc(-c2ccnc3c(C(=O)c4cccs4)cnn23)c1)OCCCN1CCS(=O)(=O)CC1
210 to 211 | O=C(c1ccco1)c1cnn2c(-c3cccc(N4CCCC4=O)c3)ccnc12
> 300 | CCCc1nc(O)c(-c2ccc(C)cc2)c(O)n1
140 to 141 | COc1cccc(CC(=O)O)c1OCCCc1cn(-c2ccc(C(F)(F)F)cn2)nc1C1CCCCC1
232 to 234 | OCc1ccc2c(ccn2-c2ccnc(N[C@H]3CC[C@H](O)CC3)n2)c1
234 to 235 | Cc1ccccc1C(=NC(=Nc1ccccc1)N1CCC(=O)CC1)Nc1ccc(F)cc1
94 to 95 | CC(C)(C)OC(=O)NCCc1ccc([N+](=O)[O-])cc1
198 to 205 | CCOC(=O)c1cn(-c2cc(N)c(F)cc2F)c2cc(F)c(F)cc2c1=O
141 to 143 | Cc1ccc(-c2nc(C)c3ccccc3n2)nc1-c1ccccc1
294 to 296 | O=C(O)c1coc2ccc3ccc(O)cc3c2c1=O
245 to 247 | c1ccc2c(c1)CC1(C3=NCCN3)CC21 (single isomer, unassigned; (+))
119 to 120 | COc1ccc(Oc2cn(C)cc(-c3cccc(C(F)(F)F)c3)c2=O)cc1
159 to 161 | Cc1ccc2c(c1)/C(=N\NC(N)=O)C(=O)N2CCN(C(C)C)C(C)C
206 to 207 | Cc1cccc(Cl)c1-n1[nH]c(C(C)C)c2c(=O)nc(Cc3ccc(N)cc3)nc1-2
195 to 197 | N#Cc1cnc2cc(Br)ccc2c1Nc1ccc(Cc2ccccc2)cc1
193 to 196 | CCOc1ccc(-c2ccc3c(c2)C=C(C(=O)Nc2ccc(CN(C)C4CCOCC4)cc2)CCN3C=O)cc1F
32 to 32.5 | CCOC(=O)C=C(C)c1ccc(C=CC=C(C)CCC=C(C)C)cc1
103 to 106 | CCOC(=O)COC1OCC[C@@H]1NC(=O)[C@H](Cc1ccccc1)NC(=O)OCc1ccccc1 (some centres undefined)
89 to 92 | Brc1c[nH]c2ccc(OCc3ccccc3)cc12
123 to 124 | O=C(Nc1ccc(OCCN2CCOCC2)c2ccccc12)c1cc(F)cc(N2CCOCC2)c1
98 to 100 | CCCCNc1nc2ccccc2c2c1ncn2C

melting point [°C] | Compound
97.5 to 99.5 | CCN(CC)C(=O)COc1cc(N)c(Cl)cc1C(=O)OC
296 to 299 | CCc1cc2[nH]c(=O)c(=O)[nH]c2c(N(CC(=O)OC)S(C)(=O)=O)c1Cl
194 to 195 | CC(=O)c1ccc(-c2ccc(C(=O)Nc3ccc4cc(CN5CCCC5)cnc4c3C)cc2)s1
220 | COc1cccc(C2=C(C#N)C(c3ccccc3[N+](=O)[O-])c3c[nH]nc3N2)c1 (centres undefined)
223 to 225 | O=C(O)c1cc(-n2c(-c3ccccc3)cc3c2CCCC3)cc(Cl)c1O
106 to 108 | Fc1ccc(N2CCN(CCCc3[nH]nc4c3CCCC4)CC2)cc1
165 to 168 | COC(=O)C1Cc2ccccc2NC1=O (centres undefined)
244 to 245 | CCCn1c(=O)c2[nH]c(-c3ccoc3)nc2n(CCC)c1=O
177 | Cc1ccc(Cn2c(NC3CCN(CC#N)CC3)nc3ccccc32)o1
82 to 83 | COc1ccc(-c2cc(Cl)on2)cc1
215 to 217 | Cc1nc2c(N)nc3ccccc3c2n1OCc1ccccc1[N+](=O)[O-]
117 to 118 | O=C(O)c1cn(-c2ccc(Cl)cc2)c2c(F)c(F)c(F)cc2c1=O
182 | CN1CC[C@H](c2c(O)cc(O)c3c(=O)cc(-c4ccccc4Cl)oc23)[C@H](O)C1
172 | Oc1c(CN2CCOCC2)ncc2c1COC2c1ccccc1 (centres undefined)
148 to 158 | Cc1ccc(S(=O)(=O)N2CCC[C@H]2C(=O)N[C@@H](Cc2ccc(NC(=S)NCCN3CCCCC3)cc2)C(=O)O)cc1
147 to 165 | O=C(Nc1ccc(C(=O)N2Cc3cccnc3Nc3ccccc32)c(Cl)c1)c1ccccc1-c1ccccc1
158 | OC(CN1CCNC1=S)c1cc(Cl)cc(Cl)c1 (centres undefined)
208 | COc1ccc(N2CCN(c3ccc(-n4cccn4)cc3)CC2)cc1
67 to 68 | O=C(OCc1ccc(OCCCc2ccc(Cl)cc2)cc1)c1cccnc1
118 to 120 | CN(C=O)c1ccc2[nH]cc(CC#N)c2c1
139 | CCOC(=O)C1=C(C)NC(N)=C(C(=O)OC(C)C)C1c1ccccc1[N+](=O)[O-] (centres undefined)
191 to 192 | CC(=O)OC1OCC[C@@H]1NC(=O)CCC(=O)Nc1ccc(Nc2ccccc2)cc1 (some centres undefined)
138 to 141 | CCNC(=O)NCCCNn1c(COCC)nc2c(N)nc3ccccc3c21
156 to 159 | CC(C)C(N)CCCCCCCCC(C)(C)C(=O)O (centres undefined)
150 to 152 | O=C1COCCN1c1ccc([N+](=O)[O-])cc1

melting point [°C] | Compound
144 to 146 | COC(=O)c1cc(C(=O)NCCN2CCOCC2)cc(-n2cccc2)c1
92 to 94 | CC(=O)OC1CCC(NC(=O)Nc2ccccc2CCc2cc(C(C)(C)C)c(O)c(C(C)(C)C)c2)CC1 (centres undefined)
192 to 194 | C=CCN(CC=C)c1nc(NC(=O)c2ccc(Cl)cc2)n2oc(=O)nc2n1
298 to 302 | OC1(F)CC(c2ccccc2)=Nc2ccccc21 (centres undefined)
148 to 150 | CC1c2cccc3c2N(CC3)c2ccccc2N1CC#N (centres undefined)
102 to 104 | Cc1cn(C(C)C(=O)N(C)C)nc1-c1ccccc1Br (centres undefined)
171 to 173 | CCCCN(C1CS(=O)(=O)c2ccccc21)S(C)(=O)=O (centres undefined)
170 to 173 | Nc1nccc2oc(I)cc12
140 to 142 | CCCNC(=O)CC=Cc1ccc2c(c1)c(Cc1ccc(C(=O)OC)cc1OC)cn2CCC
47 to 49 | CCCCOc1ccc([N+](=O)[O-])c(CO)c1
262 | O=c1oc2ccccc2c(O)c1-c1ccc(Cl)c(Cl)c1
178 to 180 | O=C(/C=C/C=C/C(=O)NCCCOc1cccc(CN2CCCC2)c1)NCCCOc1cccc(CN2CCCC2)c1
108 to 109 | COC(=O)c1cc(OC)cc(C(=O)OC)c1
220 to 222 | NC(=O)c1ccnc(OCc2nc3cc(Cl)ccc3s2)c1
184 | OC1CSC(Oc2cncc(Cl)c2)C(O)C1O (centres undefined)
238 to 241 | CC(=O)c1cc(C(=O)O)c(=O)[nH]c1C
91 to 92 | COC(=O)/C(=C\C=C\c1sc2ccccc2c1C)OC
106 to 109 | N#Cc1ccc(C=O)c(SCc2ccccc2)c1
82 to 84 | COc1nc(C(F)(F)C(F)(F)F)cc(=O)n1-c1cc(C(=O)OC(C)C)c(Cl)cc1F
198 | COc1cccc(C2CSc3ccccc3NC2=O)c1 (centres undefined)
226 to 228 | O=P(O)(O)C(O)(Cc1c(Cl)cccc1Cl)P(=O)(O)O
85 to 86 | Cc1ccc(N=NN2C(C)(C)CC(O)CC2(C)C)cc1
226 to 228 | COc1ccc(C(=O)Nc2ccc(Cl)c(Cl)c2)cc1NS(C)(=O)=O
177 to 179 | O=C1c2ccccc2C(=O)N1OCc1ccc2c(c1F)OC(c1ccccc1)(c1ccccc1)O2
